# Data taken from article PMC2584039 (Molecular Pain, 2008).
# Assays:
# TRPA1 = system: TRPA1; parameters: method as in Petrus et al. (2007); conditions: mouse; ref Petrus et al. (2007); cited from earlier work
# human TRPA1 = target: T1, human TRPA1 (Homo sapiens, UniProt O75762); assay: cell-based
# T1 construct: Full length human TRPA1 cDNA was purchased from Origene Technologies; host or cells: HEK-293 (Invitrogen Flp-In system, hygromycin B selection)
# [1] = system: spinal nerve ligation induced mechanical hypersensitivity; conditions: rat, in vivo
# T1 sequence (O75762 whole entry): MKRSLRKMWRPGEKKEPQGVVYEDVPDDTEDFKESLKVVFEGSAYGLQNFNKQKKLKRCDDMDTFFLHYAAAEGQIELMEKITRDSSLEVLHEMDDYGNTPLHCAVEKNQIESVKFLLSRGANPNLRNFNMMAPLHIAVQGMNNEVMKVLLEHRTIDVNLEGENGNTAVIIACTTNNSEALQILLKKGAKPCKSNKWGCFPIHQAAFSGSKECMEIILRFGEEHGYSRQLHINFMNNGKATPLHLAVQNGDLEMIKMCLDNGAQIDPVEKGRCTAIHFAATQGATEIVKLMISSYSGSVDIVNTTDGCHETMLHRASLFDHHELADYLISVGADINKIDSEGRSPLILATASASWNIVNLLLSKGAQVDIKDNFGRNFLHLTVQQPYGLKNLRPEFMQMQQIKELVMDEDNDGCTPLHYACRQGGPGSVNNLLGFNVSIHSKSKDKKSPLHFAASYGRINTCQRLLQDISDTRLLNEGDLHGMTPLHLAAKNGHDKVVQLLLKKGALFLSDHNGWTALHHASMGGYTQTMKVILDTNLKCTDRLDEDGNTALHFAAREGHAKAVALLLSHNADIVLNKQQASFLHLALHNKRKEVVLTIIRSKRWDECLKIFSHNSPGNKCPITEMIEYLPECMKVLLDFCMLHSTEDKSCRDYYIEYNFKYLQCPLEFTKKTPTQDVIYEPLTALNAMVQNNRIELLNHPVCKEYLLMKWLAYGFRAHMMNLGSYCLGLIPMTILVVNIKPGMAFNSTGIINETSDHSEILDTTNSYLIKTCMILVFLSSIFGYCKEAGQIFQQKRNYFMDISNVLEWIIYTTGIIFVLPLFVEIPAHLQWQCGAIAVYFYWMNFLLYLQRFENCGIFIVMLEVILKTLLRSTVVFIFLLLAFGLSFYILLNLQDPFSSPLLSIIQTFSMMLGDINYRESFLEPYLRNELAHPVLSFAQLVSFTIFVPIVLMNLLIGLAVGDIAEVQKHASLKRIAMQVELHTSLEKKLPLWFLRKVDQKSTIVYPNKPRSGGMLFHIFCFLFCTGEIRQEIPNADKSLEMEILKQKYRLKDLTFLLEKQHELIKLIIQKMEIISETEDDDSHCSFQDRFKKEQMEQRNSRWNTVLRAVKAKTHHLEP
structure (smiles),measurement,setting,value
CC(=C\c1ccc(Cl)cc1)/C(C)=N/O [AP18],IC50,TRPA1,4.5 µM
O=C/C=C/c1ccccc1 [cinnamaldehyde],EC50,human TRPA1,15.9 µM
CC(C)C[C@H](CN)CC(=O)O [pregabalin],effect on SNL mechanical hypersensitivity vs vehicle,[1],significant attenuation
same,percent reversal of SNL-induced mechanical hypersensitivity,[1],56%
